The values below come from patent publication US20150353515A1, “Novel analogs of resveratrol” (priority 2014, published 2015).

For experiment [1], the system named is RAW 264.7 macrophage cell line (LPS-stimulated NO production). Put plainly: Nitric oxide inhibition: nitrite quantification with Griess reagent in LPS-stimulated macrophage cells. It counts as cell-based, mouse. Particulars: nitrite in supernatant of LPS (100 ng/ml)-stimulated RAW 264.7 cells, 24 h, lowest tested concentration 25 μM. The text has this:
The mouse BALB/c macrophage cell line, RAW 264.7 BCRC No. 60001 (identical to ATCC number TIB-71), was obtained from Bioresource Collection and Research Center, Taiwan. The cells were maintained according to the protocols being cultured in 50 cm^2 plastic flasks (Nunc, Roskilde, Denmark) with the medium renewed every 3 days. LPS (from Escherichia coli, serotype 0127:B8), trypan blue and all the other chemicals, unless otherwise specified, were purchased from Aldrich-Sigma Chemical Company (St. Louis, Mo., USA).
The cells were cultured with or without a pretreatment by the test compounds and resveratrol of 25, 50, 100, and up to 200 μM as already described. Each value is the mean±SEM of three determinations. *p<0.05, each value was compared with or without the LPS-stimulated group.
The production of NO was determined by measuring the accumulated level of nitrite in the culture supernatant with the Griess reagent in LPS-stimulated macrophage cells. A quantity of 100 μl of a sample aliquot were mixed with 100 μl of the Griess reagent (0.1% N-(1-naphthyl)ethylenediamine, 1% sulfanilamide, and 2.5% phosphoric acid) in a 96-well plate and then incubated at 25° C. for 10 min. The absorbance at 550 nm was measured with an ELISA reader (MR 700, Dynatech Laboratories, Alexandria, Va., USA). NaNO2 was used as the standard to calculate the nitrite concentration.

For experiment [2], the system named is human umbilical vein endothelial cells (HUVECs) co-cultured with normal human dermal fibroblasts (NHDF). Put plainly: Anti-angiogenesis: capillary-tube formation assay (Kurabo angiogenesis kit). As to conditions: HUVEC tube formation inhibition, HUVEC/NHDF co-culture, 11 d, 1-100 μM. The class given is cell-based. The protocol: Capillary-tube formation was assayed using the angiogenesis kits (Kurabo, Okayama, Japan) according to the manufacturer's instruction. Briefly, human umbilical vein endothelial cells (HUVECs) co-cultured with normal human dermal fibroblasts (NHDF), which a cultural kit originally developed by Kurabo Co. Ltd., Okayama, Japan, onto 24-well plate were incubated either with or without test compounds and resveratrol respectively at appropriate concentrations (1-100 μM) for 11 d (media replacement was performed at d 1, 4, 7, and 9). The cells were thereafter fixed with 70% cold ethanol, incubated with mouse antihuman CD31 antibody followed by incubation with an alkaline phosphatase conjugate goat antimouse antibody, and then stained with 5-bromo-4-chloro-3-indolyl phosphate/nitro blue tetrazolium to visualize tube network at d-11, respectively. In each assay, randomly selected five fields of view in each well were captured by digital camera under the light microscopy on ×40 magnification. The analysis of tube formation was then carried out by measuring total area and length of tubes per well using analytical software (by Kurabo).

The subject of experiment [3] is λ-carrageenan-induced paw edema in Wistar rats. Description: In-vivo carrageenan-induced paw edema study. Particulars: rat, 20 mg/kg i.p. single dose in CMC, 5 h after carrageenan. The procedure: In this study, X-carrageenan was used to stimulate the inflammation on the rear footpad of the rats. Male albino Wistar rats (183-218 g) 4 to 6 weeks old were housed and cared under the guidelines of the Institutional Animal Care and Use Committee at the National Defense Medical Center, Taiwan. The rats were assigned to groups. For each group, 3 rats were used and marked on the tails. one of them being the control. In order to induce inflammation, 50 μl of a 1% λ-carrageenan solution in normal saline was injected into the right hind paw subplantar tissue. The development of paw edema was measured plethysmographically (Basile 7140 plethysmometer, Ugo, Varese, Italy) and recorded prior to this administration. […] Before carrageenan treatment, the volume of each […] footpad was measured (V0). […] After the λ-carrageenan challenge, each paw volume (ml) was measured hourly up to 5 h. The percentage of paw edema and the inhibition of inflammation were calculated. Edema rate (E %) was calculated as follows: E%=(Vt-V0)/V0×100; V0: volume of hind paw before 1% λ-carrageenan administration; Vt: volume of hind paw after 1% carrageenan administration at t h. Percentage of inhibition (1%) was determined as follows: 1%(Ec-Et)/Ec×100; Ec: edema rate of control group; Et: edema rate of the respective test compound at t h. […]
(The carrageenan paw model is a standard test of acute inflammation.)

Broadly, the IC50 is the concentration that gives 50% inhibition. A high value points to a need for much substance. As for `CC[n+]1c(/C=C/c2ccc(O)c(OC)c2)sc2ccccc21` [Compound 6, N-Ethyl-2-[(E)-2-(4′-hydroxy-3′-methoxyphenyl)vinyl]benzothiazolium bromide], the figures for the IC50 in experiment [1] and in experiment [2] were < 25 µM and 19.9 ± 2.3 µM, respectively.

For “N-Ethyl-2-[(E)-2-(3′,4′,5′-trimethoxyphenyl)vinyl]benzothiazolium bromide [Compound 4]”, the figures for the IC50 in experiment [1] and in experiment [2] were < 25 µM and 18.8 ± 1.3 µM, respectively. In addition, the “Percentage of inhibition of paw edema” value in experiment [3] came out at 69.5%. Moreover, in experiment [3] (p<0.05), the “paw edema (increase of paw volume)” value was determined as 0.21 ± 0.06 mL.

`CC[n+]1c(/C=C/c2ccc(OC)cc2O)sc2ccccc21` [Compound 3, N-Ethyl-2-[(E)-2-(2′-hydroxy-4′-methoxyphenyl)vinyl]benzothiazolium bromide]: the IC50 was < 25 µM in experiment [1] and 31.2 ± 2 µM in experiment [2].

As to `Oc1ccc(/C=C/c2cc(O)cc(O)c2)cc1` [Resveratrol (1), 3,5,4′-trihydroxy-trans-stilbene, reference compound], the IC50 in experiment [1] (Mus musculus, RAW264.7) came out at 40 µM; in experiment [2] (Homo sapiens, 264 h) it was 47.7 ± 1.1 µM.

`CC[n+]1c(/C=C/c2cc(OC)c(O)c(OC)c2)sc2ccccc21` [Compound 5, N-Ethyl-2-[(E)-2-(3′,5′-dimethoxy-4′-hydroxyphenyl)vinyl]benzothiazolium bromide]: the IC50 in experiment [1] is < 25 µM; in experiment [2], 21.2 ± 1.6 µM.
